Legend:
Type in all cases: physicochemical
[1] = In vitro drug release from beeswax microspheres (Example 6)
Protocol: 10 mg of microspheres were mixed with 5 mL of H2O or buffer and placed in the incubator. Three samples of each formulation were run at same conditions. A 3 mL samples were withdrawn at predetermined time intervals and an equal volume of fresh dissolution medium was replaced.
In vitro drug release for the obtained microspheres was studied in 5 ml of 10 mM buffer phosphate solution, pH 7.4 or in ddH2O at 37° C.

[2] = Release of drugs from Pickering particles in phosphate buffer (Example 3); conditions: for time within which almost all the drug was released: 1% (w/w) drug loaded Pickering dispersion, aqueous solution, room temperature; for release behaviour from the Pickering particles in the release medium: FIGS. 6, buffer medium
Protocol: Release of drugs from particles: Standard curve of drug was prepared in 10 mM phosphate buffer at pH 7.2. 10 mg of drug loaded lyophilized Pickering particles were added to 2 mL of buffer and the periodic isolated solution was analyzed by UV. The release was examined at room temperature. This was done in purpose to examine the drug release properties from the Pickering particles. The analysis of initial 30 min of release is considered as the burst release of drugs from the particles (FIGS. 6).
Release of ibuprofen from 1% (w/w) drug loaded Pickering dispersion. The release of ibuprofen was monitored by UV at the wavelength of 223 nm.
Release of ketoprofen from 1% (w/w) drug loaded Pickering dispersion. Standard curve of ketoprofen was prepared in 10 mM phosphate buffer at pH 7.2 at wavelength of 260 nm.
The particles were checked for the drug release with time. FIGS. 6 provides the release of the drug loaded Pickering particles in a buffer medium.

[3] = Encapsulation efficiency and loading capacity of solid lipid microspheres (UV after dissolving in chloroform)
Protocol: The standard curves were constructed in a concentration range of 3-70 µg/mL in 10 mM PBS with R^2 value of 0.9993 and in a concentration range of 15-800 µg/mL in chloroform with R^2 value of 0.9935.
Encapsulation efficiency is percentage of drug encapsulated in the microspheres relating to initial quantity used. 10 mg of microspheres were dissolved in 4 mL of chloroform. The absorbance of the drugs was measured using a UV-VIS spectrophotometer after appropriate dilution in order to reach calibration curve concentrations. The measured absorbance was then converted to the amount of drug by using standard calibration curve.
The loading capacity is usually expressed as the ratio of the weight of entrapped drug and the total weight of the lipid and coating particles in percentage.
Drug entrapment efficiency is calculated in order to determine the amount of drug that is actually retained in the microparticles related to the amount of drug that was mixed with lipid before particles formation, and usually expressed as a percentage.

[4] = Weight loss of DEET loaded microparticles at accelerated temperature; conditions: 30% w/w DEET loaded microparticles, 1:10 SiO2-NH2:hydrogenated vegetable oil, accelerated temperature 50° C., 1 h
Protocol: Drug loading: DEET insect repellent 30% (w/w): 30% w/w of DEET was loaded into the microparticles. The selection of the 30% drug content was based on the dissolving the DEET into the molten oil and then cooled down. The DEET loading was examined for 1:1, 1:2, 1:10 and 1:20 ratio SiO2-NH2:hydrogenated vegetable oil. The DEET loaded particles were tested by weight loss in the DEET loaded 1:10 ratio was examined. Accelerated temperature of 50° C. was used. The weight sample was heated to […] and monitored the weight loss for 1 h. 2% decrease in the weight loss of the DEET loaded microparticles was observed.

[5] = Fluazinam release from microparticles immersed in water; conditions: hydrogenated vegetable oil particles decorated with modified silica nanoparticles, about 20 microns, room temperature

CC(C)Cc1ccc(C(C)C(=O)O)cc1 (stereo not drawn) [ibuprofen]
time during which most of the drug was released ([1]; Ibuprofen from Beeswax-Starch MSs, PBS pH 7.4, 37° C.): 4 days
further continuation of release in water compared with buffer ([1]; Ibuprofen from Beeswax-Starch MSs, ddH2O, 37° C.): 7 days
time within which almost all the drug was released [2]: ≤ 30 min
release behaviour from the Pickering particles in the release medium [2]: sustained release
loading capacity ([3]; Ibuprofen in Beeswax-Starch MSs, average of three experiments): 15.7%
entrapment efficiency ([3]; Ibuprofen-loaded microspheres from beeswax and starch): 71%

CCN(CC)C(=O)c1cccc(C)c1 [DEET]
decrease in weight (weight loss) [4]: 2%

CCN(CC)CC(=O)Nc1c(C)cccc1C [Lidocaine]
drug released in initial burst, first 24 h ([1]; Lidocaine from Beeswax-Chitosan microspheres, 10 mM phosphate buffer pH 7.4, 37° C.): about 70%
entrapment efficacy ([3]; Lidocaine in Beeswax-Chitosan particles (pH 6.5)): 49%

CC(C(=O)O)c1cccc(C(=O)c2ccccc2)c1 (stereo not drawn) [ketoprofen]
time within which almost all the drug was released [2]: ≤ 30 min

O=[N+]([O-])c1cc(C(F)(F)F)c(Cl)c([N+](=O)[O-])c1Nc1ncc(C(F)(F)F)cc1Cl [Fluazinam]
release behaviour in water [5]: constantly releasing

CN(C)CCC[C@@]1(c2ccc(F)cc2)OCc2cc(C#N)ccc21 [escitalopram]
release behaviour from the Pickering particles in the release medium [2]: sustained release

Source: US20230263754A1, “SOLID DISPERSIONS AND PARTICLES AND METHODS FOR CONTROLLED-RELEASE OF LIPID-SOLUBLE OR DISPESIBLE ACTIVES” (YISSUM RESEARCH DEVELOPMENT COMPANY OF THE HEBREW …, priority 2020, published 2023)
